Experiments:
IκB = IκB degradation in RANKL-treated RAW264.7 cells (anti-IκB immunoblot); format: cell-based, mouse; settings: cytoplasmic extracts of RAW264.7 cells from FIG. 4A (FIG. 4B)
Protocol: RAW264.7 cells were plated in 6-well plates and treated with the indicated peptides for 5 h, then treated with RANKL (10 nM) for 15 mm. Nuclear and cytoplasmic extracts were prepared and a gel mobility shift assays was performed with 8 μg of nuclear extracts as described below.
Cytoplasmic extracts (30 μg) from FIG. 4A were immunoblotted with anti-IκB as described below.
293 cells were plated at 0.6×10^6 cells/well on 6-well plates and transfected the next day as described (8). Total amount of plasmid DNA was kept constant by adding empty pCMVFLAG1 vector. Cells and the conditioned supernatants were harvested 24-36 h after transfection. Lysates were prepared as described (8). For western blot analysis, whole-cell lysates (15-30 μg) or proteins from GST-affinity precipitation were separated by 8.5% SDS-PAGE, electroblotted onto nitrocellulose membranes, and incubated with the indicated antibodies. The membranes were then developed using the enhanced chemiluminescence (ECL) system (Amersham, Chicago, Ill.).

[1] = tested on: RAW cells co-cultured with breast cancer cell lines; test: Osteoclast differentiation of RAW cells induced by co-cultured breast cancer cells (T47D, MDA-MB-468); format: cell-based, mouse; settings: co-culture, 100 μM peptide, 5 days, TRAP staining (FIG. 6A)
Protocol: FIG. 6A: Breast cancer cells (500/well) were plated in 24-well plates in the absence or presence of RAW cells (10000/well) and in the absence or presence of L-T6DP-1 or T6DP-1 (100 μM). After 5 days. the cells were fixed, stained for TRAP, and photographed with a 10× objective lens.
The number of MG-63 cells was critical for inducing RAW cells to differentiate into osteoclasts. These observations lead to a direct inverse relationship between the number of RAW cells to MG-63 cells which is required for the formation of osteoclasts. […] When grown on synthetic bone slides, the osteoclasts derived from the co-culture assays were able to cause bone resorption (FIG. 6B).
When L-T6DP-1 was added to these co-culture assays, the ability of the breast cancer cells to induce osteoclast differentiation of RAW cells was abolished, whereas T6DP-1 had no effect (FIG. 6A).

[2] = target: T1, TRAF2 binding to the cytoplasmic domain of RANK (Homo sapiens, UniProt Q12933); test: Competitive GST-pull down assay, TRAF2 binding to RANK cytoplasmic domain; settings: 100 μM peptide, FLAG-TRAF2 293 cell extract (FIG. 4C)
T1 construct: expressed in transfected cells; host or cells: human 293 cells (TRAF lysate); The GST-RANK fusion was purified as previously described
T1 sequence (Q12933 1-501): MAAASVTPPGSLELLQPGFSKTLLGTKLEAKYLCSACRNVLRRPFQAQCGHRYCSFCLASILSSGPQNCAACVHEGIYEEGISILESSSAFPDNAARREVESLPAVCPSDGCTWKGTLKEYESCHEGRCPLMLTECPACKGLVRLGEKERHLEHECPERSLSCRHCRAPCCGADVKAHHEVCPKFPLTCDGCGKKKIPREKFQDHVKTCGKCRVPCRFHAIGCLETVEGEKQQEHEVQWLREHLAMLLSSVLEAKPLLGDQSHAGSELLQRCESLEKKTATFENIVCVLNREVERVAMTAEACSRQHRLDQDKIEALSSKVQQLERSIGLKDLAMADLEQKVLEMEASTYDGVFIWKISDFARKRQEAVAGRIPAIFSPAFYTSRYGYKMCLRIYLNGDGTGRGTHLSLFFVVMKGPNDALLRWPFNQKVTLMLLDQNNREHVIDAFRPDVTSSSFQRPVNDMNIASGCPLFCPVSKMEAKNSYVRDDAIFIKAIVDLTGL
Protocol: Cellular extracts from human 293 cells transfected with either FLAG-TRAF2, -TRAF5, or -TRAF6 were mixed with GST or GST-RANKed in the absence or presence of 100 μM of the indicated peptides. A GST-pull down assay was performed as described below. The bound TRAFs were visualized by immunoblotting with anti-FLAG antibodies.
Equivalent amounts of GST or GST-RANK cytoplasmic domain (GST-RANKed) fusion protein attached to 20 μl of glutathione agarose beads were mixed with lysates (50 μg) from 293 cells programmed to express the epitope-tagged TRAF protein and the indicated peptides in binding buffer (20 mM TRIS, pH 8, 150 mM NaCl, 1 mM DTT, 2 mM EDTA, and 0.1% NP-40) and allowed to rotate for 1 h at 4° C. The beads were collected by centrifugation, washed three times in binding buffer, and then washed once in low-salt buffer (20 mM TRIS, pH 8, 50 mM NaCl, and 1 mM DTT). Bound proteins were eluted with addition of SDS-sample buffer and boiled. The eluted proteins were subjected to 7.5% SDS-PAGE and western blot analysis was performed with anti-FLAG antibodies.
The cytoplasmic domain of RANK interacts with many TRAF molecules, including TRAF1, 2, 3, 5, and 6 (7-9, 11, 12). While TRAF1, 2, 3, and 5 interact with the c-terminal tail of receptor activator of NF-κB, TRAF6 interacts with a membrane proximal region of the cytoplasmic domain of the receptor activator of NF-κB. […]

L-T6DP-1: Kaposi fibroblast growth factor signal sequence hydrophobic domain attached to murine RANK peptide containing the known TRAF6 binding domain (AAVALLPAVLLALLAPRKIPTEDEYTDRPSQPST; PEPTIDE Peptide L-T6Bp-1)
IκB degradation (IκB): inhibition | ability of breast cancer cells to induce osteoclast differentiation of RAW cells [1]: abolished | TRAF2 binding to the cytoplasmic domain of RANK [2]: neither L-T6DP-1 nor L-T6DP-2 inhibited
